Source: patent US20220386611A1, “NOVEL HETEROARYL-TRIAZOLE COMPOUNDS AS PESTICIDES” (Bayer Aktiengesellschaft, priority 2019, published 2022)

Key:
Type in all cases: in vivo
[1] = system: Rhipicephalus microplus larvae (strain Parkhurst, resistant against synthetic pyrethroids); test: Rhipicephalus (Boophilus) microplus in-vitro contact test, larval cattle tick; settings: 5 μg/cm^2 (=500 g/ha), after 48 hours, read-out: efficacy (larvae dead or moribund)
Protocol: Rhipicephalus (Boophilus) Microplus—In-Vitro Contact Tests Larval Cattle Tick (Strain Parkhurst, Resistant Against Synthetic Pyrethroids)
(§1) 9 mg compound is solved in 1 mL acetone and diluted with acetone to the desired concentration. 250 μL of the test solution is filled in 25 mL glass test tubes and homogeneously distributed on the inner walls by rotation and tilting on a shaking device (2 h at 30 rpm). With a compound concentration of 900 ppm, an inner surface of 44.7 cm^2 and a homogeneous distribution, a dose of 5 μg/cm^2 is achieved.
After the solvent has evaporated, each test tube is filled with 20-50 cattle tick larvae (Rhipicephalus microplus), closed with a perforated lid and incubated in a horizontal position at 85% relative humidity and 27° C. in an incubator. After 48 hours efficacy is determined. The larvae are patted on the ground of the tubes and negative geotactic behaviour is recorded.
An efficacy of 100% means all larvae are dead or moribund; 0% means no larvae are dead or moribund.

[2] = system: adult engorged female ticks (Rhipicephalus microplus); test: Rhipicephalus (Boophilus) microplus injection test; settings: 168 h, 4 μg/animal, after 7 days, read-out: efficacy (infertile eggs)
Protocol: Rhipicephalus (Boophilus) microplus—Injection Test
(§2) Solvent: dimethyl sulfoxide
To produce a suitable preparation of active compound, 10 mg of active compound are dissolved in 0.5 mL solvent, and the concentrate is diluted with solvent to the desired concentration.
Five adult engorged female ticks (Rhipicephalus microplus) are injected with 1 μL compound solution into the abdomen. The ticks are transferred into replica plates and incubated in a climate chamber.
After 7 days egg deposition of fertile eggs is monitored. Eggs where fertility is not visible are stored in a climate chamber till hatching after about 42 days. An efficacy of 100% means all eggs are infertile; 0% means all eggs are fertile.

[3] = system: larvae of the southern green stink bug (Nezara viridula); test: Nezara viridula spray test; settings: 96 h, after 4 days, barley plants
Protocol: Nezara viridula—Spray Test
Solvent: 78.0 parts by weight of acetone • • 1.5 parts by weight of dimethylformamide
(§3) Emulsifier: alkylarylpolyglycol ether
(§4) To produce a suitable preparation of active compound, 1 part by weight of active compound is mixed with the stated amount of solvent, and the concentrate is diluted with water, containing an emulsifier concentration of 1000 ppm, to the desired concentration. Further test concentrations are prepared by dilution with emulsifier containing water.
Barley plants (Hordeum vulgare) infested with larvae of the southern green stink bug (Nezara viridula) are sprayed with a test solution containing the desired concentration of the active ingredient.
After 4 days mortality in % is determined. 100% means all the stink bugs have been killed; 0% means none of the stink bugs have been killed.

[4] = system: green peach aphid (Myzus persicae); test: Myzus persicae oral test; settings: 120 h
Protocol: Solvent: 100 parts by weight acetone
To produce a suitable preparation of active compound, 1 part by weight of active compound is mixed with the stated amount of solvent, and the concentrate is diluted with water to the desired concentration. 50 μL compound solution is filled in microtiter plates and 150 μL IPL41 insect medium (33%+15% sugar) is added to obtain a total volume of 200 μL per well. Afterwards the plates are sealed with parafilm through which a mixed population of the green peach aphid (Myzus persicae) can suck on the compound preparation.
(§5) After 5 days mortality in % is determined. 100% means all aphids have been killed and 0% means none of the aphids have been killed.

[5] = system: adult unfed cat fleas (Ctenocephalides felis); test: Ctenocephalides felis oral test; settings: 48 h
Protocol: Ctenocephalides felis—Oral Test
as §2
To produce a suitable preparation of active compound, 10 mg of active compound are dissolved in 0.5 ml solvent, and the concentrate is diluted with cattle blood to the desired concentration.
Approximately 20 adult unfed cat fleas (Ctenocephalides felis) are placed in flea chambers. The blood chamber, sealed with parafilm on the bottom, are filled with cattle blood supplied with compound solution and placed on the gauze covered top of the flea chamber, so that the fleas are able to suck the blood. The blood chamber is heated to 37° C. whereas the flea chamber is kept at room temperature.
After 2 days mortality in % is determined. 100% means all the fleas have been killed; 0% means none of the fleas have been killed.

[6] = system: adult brown dog ticks (Rhipicephalus sanguineus); test: Rhipicephalus sanguineus in-vitro contact test with adult brown dog ticks; settings: 5 μg/cm^2 (=500 g/ha), after 48 hours, read-out: efficacy (ticks dead or moribund)
Protocol: Rhipicephalus sanguineus—In-Vitro Contact Tests with Adult Brown Dog Ticks
as §1
After the solvent has evaporated, each test tube is filled with 5-10 adult brown dog ticks (Rhipicephalus sanguineus), closed with a perforated lid and incubated in a lying position at room temperature and relative humidity. After 48 hours efficacy is determined. The ticks are patted on the ground of the tubes and are incubated on a heating plate at 45-50° C. for at most 5 minutes. Immotile or uncoordinated moving ticks, which are not able to escape the heat by climbing upwards, are marked as dead or moribund.
An efficacy of 100% means all ticks are dead or moribund; 0% means no ticks are dead or moribund.

[7] = system: green peach aphid (Myzus persicae); test: Myzus persicae spray test; settings: foliar, 120 h, after 5 days, Chinese cabbage leaf disks
Protocol: Myzus persicae—spray test
Solvent: 78.0 parts by weight acetone • 1.5 parts by weight dimethylformamide
as §3
as §4, with “solvents” for “solvent,”, “and” for “and the concentrate”
Chinese cabbage (Brassica pekinensis) leaf disks infected with all instars of the green peach aphid (Myzus persicae), are sprayed with a preparation of the active ingredient of the desired concentration.
as §5

[8] = system: Anopheles funestus strain FUMOZ-R; test: Anopheles funestus test (ANPHFU surface treatment & contact assay); settings: surface concentration 20 mg/m^2, 30 minutes exposure, 24 hours after contact, read-out: efficacy (mortality)
Protocol: Anopheles funestus Test (ANPHFU Surface Treatment & Contact Assay)
(§6) Solvent: Aceton+2000 ppm rapeseed oil methyl ester (RME)
(§7) In order to produce a sufficient, active ingredient containing solution it is necessary to solve the test compound in the solvent-mix (acetone at 2 mg/ml/RME 2000 ppm). This solution is pipetted onto a glazed tile and after evaporation of the acetone, adult mosquitoes of the species Anopheles funestus strain FUMOZ-R (Hunt et al., Med. Vet. Entomol. 2005 September; 19(3): 271-275) are placed onto the dried surface. The exposure time is 30 minutes. Mortality in percent (%) is determined 24 hours after contact of the insects to the treated surface. 100% mortality means that all tested insects are dead, whereas 0% means that no insect died.

[9] = system: Aedes aegypti strain MONHEIM; test: Aedes aegypti test (AEDSAE surface treatment & contact assay); settings: 24 hours after contact, read-out: efficacy (mortality); for mortality at 4 mg/m2: surface concentration 4 mg/m^2, 30 minutes exposure
Protocol: Aedes Aegypti Test (AEDSAE Surface Treatment & Contact Assay)
as §6
as §7, with “Aedes aegypti” for “Anopheles funestus”, “MONHEIM” for “FUMOZ-R (Hunt et al., Med. Vet. Entomol. 2005 September; 19(3): 271-275)”

[10] = system: adult cat fleas (Ctenocephalides felis); test: Ctenocephalides felis in-vitro contact test, adult cat flea; settings: after 48 hours, read-out: efficacy (fleas dead or moribund)
Protocol: as §1, with “Ctenocephalides felis—In-Vitro Contact Tests Adult Cat Flea 9 mg” for “9 mg”
After the solvent has evaporated, each test tube is filled with 5-10 adult cat fleas (Ctenocephalidesfelis), closed with a perforated lid and incubated in a lying position at room temperature and relative humidity.
After 48 hours efficacy is determined. The fleas are patted on the ground of the tubes and are incubated on a heating plate at 45-50° C. for at most 5 minutes. Immotile or uncoordinated moving fleas, which are not able to escape the heat by climbing upwards, are marked as dead or moribund.
An efficacy of 100% means all fleas are dead or moribund; 0% means no fleas are dead or moribund.

[11] = system: larvae of the banded cucumber beetle (Diabrotica balteata); test: Diabrotica balteata spray test; settings: 168 h, 100 g/ha (=32 μg/well), after 7 days, wheat seeds, read-out: efficacy (seedlings grown like untreated, uninfected control)
Protocol: Diabrotica balteata—spray test
Solvent: 78.0 parts by weight of acetone
1.5 parts by weight of dimethylformamide
as §3, §4
Soaked wheat seeds (Triticum aestivum) are placed in a multiple well plate filled with agar and some water and are incubated for 1 day to germinate (5 seeds per well). The germinated wheat seeds are sprayed with a test solution containing the desired concentration of the active ingredient. Afterwards each unit is infected with 10-20 larvae of the banded cucumber beetle (Diabrotica balteata).
After 7 days efficacy in % is determined. 100% means all the seedlings have grown up like in the untreated, uninfected control; 0% means none of the seedlings have grown.

| Compound | pest or weed control at 5 µg/cm2 [1] [%] | pest or weed control at 0.004 mg [2] [%] | mortality at 100 g/ha [3] [%] | mortality at 4 ppm [4] [%] | mortality at 100 ppm [5] [%] | pest or weed control at 5 µg/cm2, 500 g/ha [6] [%] | mortality at 100 g/ha [7] [%] | mortality at 20 mg/m2 [8] [%] | mortality at 4 mg/m2 [9] [%] | mortality at 20 mg/m2 ([9]; surface concentration 20 mg/m^2, 30 minutes exposure) [%] | pest or weed control at 1 µg/cm2, 100 g/ha ([10]; 1 μg/cm^2 (=100 g/ha)) [%] | pest or weed control at 5 µg/cm2, 500 g/ha ([10]; 5 μg/cm^2 (=500 g/ha)) [%] | pest or weed control at 32 µg/disc, 100 g/ha [11] [%] |
| --- | --- | --- | --- | --- | --- | --- | --- | --- | --- | --- | --- | --- | --- |
| CC(NC(=O)c1cncc(C(F)(F)F)c1)c1nc(Cl)nn1-c1ncccn1 (stereo not shown) [Example I-007] | 100 | 100 | 90 | 90 | 100 | 100 | 90 | 80 to 100 | 80 to 100 | 80 to 100 |  |  |  |
| CC(NC(=O)c1cc(Cl)nc(C(F)(F)F)c1)c1nc(Cl)nn1-c1ncccn1 (stereo not shown) [Example I-008] | 100 | 100 | 100 |  | 100 | 100 |  |  | 80 to 100 |  | 90 | 90 | 80 |
